According to patent US20250268857A1 (priority 2020, published 2025):
Where “and” joins values, the source holds several entries; their conditions need not be identical. Identical values can stand only once. Like-named read-outs stand apart in the source and are kept apart here.

Legend:
[1] = tested on: avian influenza virus (A/whistling swan/Shimane/499/83 (H5N3)); format: cell-based; conditions: reacted 10 minutes at room temperature (20° C.), sterile distilled water control 7.75
[2] = tested on: human influenza viruses and avian influenza viruses with different anti-HN types (H1N1, H1N1 subtype, and H7N7); format: cell-based, influenza virus; conditions: zinc gluconate concentration of 7,500 ppm
[3] = tested on: feline caliciviruses; format: cell-based, feline calicivirus
[4] = tested on: feline coronavirus (Feline Enteric Coronavirus, WSU 79-1683); assay: Coronavirus inactivation test (titration on Felis catus whole fetus cells); format: cell-based; conditions: 7500 ppm aqueous solution of zinc gluconate; in 30 minutes
Method: First, 0.9 ml of 7500 ppm of aqueous solution of zinc gluconate (phosphate buffered saline (PBS) was used for comparison) used as a sample solution and 0.1 ml of feline coronavirus solution (Feline Enteric Coronavirus, WSU 79-1683, 1.3× 10^5 EID50/0.1 ml) were mixed in a vortex mixer and reacted at room temperature (20° C.) for 30 minutes. The mixture solution of the sample and the virus was diluted to 100 times with a 5-times diluted Soybean-Casein Digest Broth with Lecithin & Polysorbate 80 (SCDLP) to stop the reaction and obtain a sample for measuring virus infection values.
Felis catus whole fetus cells used for testing were pre-seeded in 96-well plates and cultured in a CO2 incubator for 4 days. After this, the culture supernatant was removed and replaced with Dulbecco's Modified Eagle's medium containing 1% fetal bovine serum (available from Nissui Pharmaceutical Co., Ltd.).
The wells from which the culture medium had been removed were inoculated with 25 μl of the above sample for measuring virus infection values or with a 10-fold dilution of this in PBS, and the virus was allowed to infect the cells at 37° C. for 1 hour. […] After incubation, the cytopathic effect caused by virus growth was observed under a microscope, and the virus infection titer was calculated by the Reed and Muench method.

[5] = tested on: influenza A virus (Kumamoto/Y5/67 (H2/N2)); design: species or system guinea pigs; conditions: guinea pig, in vivo
[6] = format: physicochemical; conditions: samples with 2,000 to 30,000 ppm zinc gluconate
Excerpt: Zinc oxide nanoparticles having a diameter of 50 to 70 nm were dispersed and stirred into an aqueous solution at room temperature while the solution temperature was prevented from exceeding room temperature. The aqueous solution contained 50% of organic acid (gluconic acid in the embodiment) that partially lactonizes when dissolved in water.

Substance: zinc gluconate
- Virus Infectivity Titer ([1]; zinc gluconate 2,000 ppm): 6.25 log EID50/0.1 ml
- Virus Infectivity Titer ([1]; zinc gluconate 3,750 ppm): 4.5 log EID50/0.1 ml
- Virus Infectivity Titer ([1]; zinc gluconate 5,000 ppm): 3.5 log EID50/0.1 ml
- Virus Infectivity Titer ([1]; zinc gluconate 7,500 ppm): 2.25 log EID50/0.1 ml
- Virus Infectivity Titer ([1]; zinc gluconate 10,000 ppm): 2.5 log EID50/0.1 ml
- Virus Infectivity Titer ([1]; zinc gluconate 30,000 ppm): 5.75 log EID50/0.1 ml
- reduction in infectivity titer [2]: same reduction in infectivity titer
- reduction in infectivity titer [3]: 94%
- titer reduced to (fraction) [4]: 1/100
- Infection rate [5]: 4/10 and 1/10 and 3/10
- pH [6]: 3.6
